# pIC50, pKi: −log10 of the molar value. Activity calls are given as the source filed them. The rule behind the calls is not given here.
# Legend:
# [1] = biological target: Tyrosine-protein kinase JAK3 (Homo sapiens) (UniProt P52333); assay: Inhibition of human catalytic domain N-terminal his tagged JAK3 (795 to 1124 end residues) expressed in baculovirus expression system using Srctide as substrate at 10 uM by mobility shift assay relative to control
# [2] = biological target: Tyrosine-protein kinase SYK (Homo sapiens) (UniProt P43405); assay: Inhibition of full length human N-terminal GST tagged SYK (1 to […] end residues) expressed in baculovirus expression system using Blk/lyntide as substrate at 10 uM by mobility shift assay relative to control
# [3] = biological target: Dual specificity tyrosine-phosphorylation-regulated kinase 1B (Homo sapiens) (UniProt Q9Y463); assay: Inhibition of full length human N-terminal GST tagged DYRK1B (1 to 629 end residues) expressed in baculovirus expression system using DYRKtide-F as substrate at 10 uM by mobility shift assay relative to control
# [4] = biological target: Mitogen-activated protein kinase 1 (Homo sapiens) (UniProt P28482); assay: Inhibition of full length human N-terminal GST tagged Erk2 (1 to 360 end residues) expressed in Escherichia coli expression system using modified Erktide as substrate at 10 uM by mobility shift assay relative to control
# [5] = biological target: Serine/threonine-protein kinase 4 (Homo sapiens) (UniProt Q13043); assay: Inhibition of full length human N-terminal GST tagged MST1 (1 to 487 end residues) expressed in baculovirus expression system using IRS1 as substrate at 10 uM by mobility shift assay relative to control
# [6] = biological target: Serine/threonine-protein kinase Nek2 (Homo sapiens) (UniProt P51955); assay: Inhibition of full length human N-terminal his-tagged NEK2 (1 to 445 end residues) expressed in baculovirus expression system using CDK7 peptide as substrate at 10 uM by mobility shift assay relative to control
# [7] = biological target: Serine/threonine-protein kinase PAK 2 (Homo sapiens) (UniProt Q13177); assay: Inhibition of full length human N-terminal GST tagged PAK2 (1 to 524 end residues) expressed in baculovirus expression system using DAPK1tide as substrate at 10 uM by mobility shift assay relative to control
# [8] = biological target: Lymphokine-activated killer T-cell-originated protein kinase (Homo sapiens) (UniProt Q96KB5); assay: Inhibition of full length human N-terminal GST tagged PBK (1 to 322 end residues) expressed in baculovirus expression system using histone H3 as substrate at 10 uM by mobility shift assay relative to control
# [9] = biological target: 5-hydroxytryptamine receptor 2B (Homo sapiens) (UniProt P41595); assay: Inhibition of 5-HT2B receptor (unknown origin) at 10 uM by radioligand binding assay relative to control
# [10] = biological target: 5-hydroxytryptamine receptor 2C (Homo sapiens) (UniProt P28335); assay: Inhibition of 5-HT2C receptor (unknown origin) at 10 uM by radioligand binding assay relative to control
# [11] = biological target: 5-hydroxytryptamine receptor 5A (Homo sapiens) (UniProt P47898); assay: Inhibition of 5-HT5A receptor (unknown origin) at 10 uM by radioligand binding assay relative to control
# [12] = biological target: 5-hydroxytryptamine receptor 7 (Homo sapiens) (UniProt P34969); assay: Inhibition of 5-HT7 receptor (unknown origin) at 10 uM by radioligand binding assay relative to control
# [13] = biological target: Alpha-1A adrenergic receptor (Homo sapiens) (UniProt P35348); assay: Inhibition of Alpha1A receptor (unknown origin) at 10 uM by radioligand binding assay relative to control
# [14] = biological target: Beta-2 adrenergic receptor (Homo sapiens) (UniProt P07550); assay: Inhibition of Beta2 receptor (unknown origin) at 10 uM by radioligand binding assay relative to control
# Homo sapiens = organism: Homo sapiens; assay: Inhibition of BZP (unknown origin) at 10 uM by radioligand binding assay relative to control
# [15] = biological target: Delta-type opioid receptor (Homo sapiens) (UniProt P41143); assay: Inhibition of DOR (unknown origin) at 10 uM by radioligand binding assay relative to control
# [16] = biological target: Histamine H2 receptor (Homo sapiens) (UniProt P25021); assay: Inhibition of H2 receptor (unknown origin) at 10 uM by radioligand binding assay relative to control
# [17] = biological target: Muscarinic acetylcholine receptor M1 (Homo sapiens) (UniProt P11229); assay: Inhibition of M1 receptor (unknown origin) at 10 uM by radioligand binding assay relative to control
# [18] = biological target: Muscarinic acetylcholine receptor M2 (Homo sapiens) (UniProt P08172); assay: Inhibition of M2 receptor (unknown origin) at 10 uM by radioligand binding assay relative to control
# [19] = biological target: Muscarinic acetylcholine receptor M3 (Homo sapiens) (UniProt P20309); assay: Inhibition of M3 receptor (unknown origin) at 10 uM by radioligand binding assay relative to control
# [20] = biological target: Muscarinic acetylcholine receptor M5 (Homo sapiens) (UniProt P08912); assay: Inhibition of M5 receptor (unknown origin) at 10 uM by radioligand binding assay relative to control
# [21] = biological target: Translocator protein (Homo sapiens) (UniProt P30536); assay: Inhibition of PBR (unknown origin) at 10 uM by radioligand binding assay relative to control
# [22] = biological target: Histone-lysine N-methyltransferase EHMT2 (Homo sapiens, UniProt Q96KQ7); assay: Inhibition of G9a (unknown origin) using [3H-SAM] as substrate incubated for 1 hr by scintillation proximity assay
# [23] = biological target: Protein arginine N-methyltransferase 5 (Homo sapiens, UniProt O14744); assay: Inhibition of PRMT5 (unknown origin) using [3H-SAM] as substrate incubated for 1 hr by scintillation proximity assay
# [24] = biological target: Protein arginine N-methyltransferase 1 (Homo sapiens, UniProt Q99873); assay: Inhibition of PRMT1 (unknown origin) using [3H-SAM] as substrate incubated for 1 hr by scintillation proximity assay
# [25] = biological target: Histone-lysine N-methyltransferase, H3 lysine-79 specific (Homo sapiens, UniProt Q8TEK3); assay: Inhibition of DOT1L (unknown origin) using [3H-SAM] as substrate incubated for 1 hr by scintillation proximity assay
# [26] = biological target: Histone-lysine N-methyltransferase SETDB1 (Homo sapiens, UniProt Q15047); assay: Inhibition of SETDB1 (unknown origin) using [3H-SAM] as substrate incubated for 1 hr by scintillation proximity assay
# DB = assay: Antiproliferative activity against human DB cells assessed as reduction in cell viability at 3000 nM measured after 8 days by cell proliferation assay; assay type: functional, cell-based; conditions: time 8.0 day
# [27] = Toxicity in Swiss albino mouse assessed as drug tolerance at 15 to 150 mg/kg administered as single ip dose measured upto 24 hrs; assay type: organism-based; conditions: in vivo, dose 15-150 mg/kg
# [28] = biological target: Sodium-dependent noradrenaline transporter (Homo sapiens, UniProt P23975)
# Description: Binding affinity to NET (unknown origin) assessed as inhibition constant
# [29] = biological target: 3-phosphoinositide-dependent protein kinase 1 (Homo sapiens) (UniProt O15530); assay: Inhibition of full length human N-terminal GST tagged PDK1 (1 to 556 end residues) expressed in baculovirus expression system using T308tide as substrate at 10 uM by mobility shift assay relative to control
# Chain of 3-phosphoinositide-dependent protein kinase 1 (Homo sapiens) (O15530 whole entry, looked up): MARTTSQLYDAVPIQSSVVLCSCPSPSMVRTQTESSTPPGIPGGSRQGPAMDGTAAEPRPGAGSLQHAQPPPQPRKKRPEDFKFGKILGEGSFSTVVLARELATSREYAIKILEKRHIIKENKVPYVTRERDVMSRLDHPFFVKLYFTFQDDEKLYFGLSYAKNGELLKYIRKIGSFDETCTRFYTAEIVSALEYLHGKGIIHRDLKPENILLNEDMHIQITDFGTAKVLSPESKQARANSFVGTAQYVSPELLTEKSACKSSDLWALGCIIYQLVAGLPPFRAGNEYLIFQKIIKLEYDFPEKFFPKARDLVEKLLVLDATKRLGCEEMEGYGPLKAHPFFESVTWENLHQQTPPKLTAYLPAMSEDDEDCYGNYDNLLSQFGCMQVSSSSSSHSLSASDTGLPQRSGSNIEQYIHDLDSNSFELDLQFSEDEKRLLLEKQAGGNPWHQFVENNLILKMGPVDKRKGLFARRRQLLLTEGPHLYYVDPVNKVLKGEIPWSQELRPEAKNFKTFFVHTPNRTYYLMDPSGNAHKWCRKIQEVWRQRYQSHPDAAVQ
# Chain of Lymphokine-activated killer T-cell-originated protein kinase (Homo sapiens) (Q96KB5 whole entry): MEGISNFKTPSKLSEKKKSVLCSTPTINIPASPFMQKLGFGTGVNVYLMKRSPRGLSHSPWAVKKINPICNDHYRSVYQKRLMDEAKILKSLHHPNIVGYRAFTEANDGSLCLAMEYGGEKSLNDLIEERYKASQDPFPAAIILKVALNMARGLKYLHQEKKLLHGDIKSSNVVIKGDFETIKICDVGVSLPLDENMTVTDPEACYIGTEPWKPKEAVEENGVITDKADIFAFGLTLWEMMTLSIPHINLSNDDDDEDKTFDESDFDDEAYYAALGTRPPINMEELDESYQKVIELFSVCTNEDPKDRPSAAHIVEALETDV
# Chain of Muscarinic acetylcholine receptor M1 (Homo sapiens) (P11229 whole entry): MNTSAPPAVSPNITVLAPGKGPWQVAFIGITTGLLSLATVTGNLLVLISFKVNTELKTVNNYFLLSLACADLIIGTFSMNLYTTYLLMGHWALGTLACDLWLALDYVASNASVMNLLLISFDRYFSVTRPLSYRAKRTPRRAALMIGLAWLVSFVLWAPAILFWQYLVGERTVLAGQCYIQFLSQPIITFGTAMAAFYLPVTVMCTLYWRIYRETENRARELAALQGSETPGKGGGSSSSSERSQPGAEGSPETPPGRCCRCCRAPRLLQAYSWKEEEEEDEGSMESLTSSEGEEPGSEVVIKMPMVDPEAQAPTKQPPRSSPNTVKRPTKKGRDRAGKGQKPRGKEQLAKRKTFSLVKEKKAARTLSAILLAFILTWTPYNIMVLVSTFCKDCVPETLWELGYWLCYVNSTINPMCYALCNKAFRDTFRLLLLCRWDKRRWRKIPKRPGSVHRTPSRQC
# Chain of 5-hydroxytryptamine receptor 2C (Homo sapiens) (P28335 whole entry): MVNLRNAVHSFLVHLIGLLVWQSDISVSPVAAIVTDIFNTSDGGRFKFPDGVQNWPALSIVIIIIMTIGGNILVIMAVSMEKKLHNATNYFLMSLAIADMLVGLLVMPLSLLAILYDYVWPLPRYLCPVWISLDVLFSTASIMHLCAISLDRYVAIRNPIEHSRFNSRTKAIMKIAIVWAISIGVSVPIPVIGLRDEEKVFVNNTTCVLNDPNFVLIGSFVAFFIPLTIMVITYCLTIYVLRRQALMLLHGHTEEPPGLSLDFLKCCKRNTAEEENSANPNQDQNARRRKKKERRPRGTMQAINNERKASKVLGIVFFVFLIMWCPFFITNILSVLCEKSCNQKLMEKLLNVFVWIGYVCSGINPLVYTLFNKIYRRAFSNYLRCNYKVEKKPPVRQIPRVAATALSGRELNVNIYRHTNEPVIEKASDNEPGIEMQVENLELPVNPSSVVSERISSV
# Chain of Delta-type opioid receptor (Homo sapiens) (P41143 whole entry): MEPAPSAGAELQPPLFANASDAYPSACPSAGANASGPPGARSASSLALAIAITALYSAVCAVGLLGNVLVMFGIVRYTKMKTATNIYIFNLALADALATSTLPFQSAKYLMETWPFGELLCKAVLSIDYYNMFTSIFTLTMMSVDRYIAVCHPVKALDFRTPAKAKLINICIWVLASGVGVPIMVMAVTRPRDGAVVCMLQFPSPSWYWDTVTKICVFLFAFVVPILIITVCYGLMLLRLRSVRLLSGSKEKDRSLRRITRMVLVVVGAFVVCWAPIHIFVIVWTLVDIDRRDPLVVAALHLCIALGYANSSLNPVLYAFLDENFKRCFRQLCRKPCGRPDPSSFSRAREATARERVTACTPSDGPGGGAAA
# Chain of Histone-lysine N-methyltransferase, H3 lysine-79 specific (Q8TEK3 whole entry): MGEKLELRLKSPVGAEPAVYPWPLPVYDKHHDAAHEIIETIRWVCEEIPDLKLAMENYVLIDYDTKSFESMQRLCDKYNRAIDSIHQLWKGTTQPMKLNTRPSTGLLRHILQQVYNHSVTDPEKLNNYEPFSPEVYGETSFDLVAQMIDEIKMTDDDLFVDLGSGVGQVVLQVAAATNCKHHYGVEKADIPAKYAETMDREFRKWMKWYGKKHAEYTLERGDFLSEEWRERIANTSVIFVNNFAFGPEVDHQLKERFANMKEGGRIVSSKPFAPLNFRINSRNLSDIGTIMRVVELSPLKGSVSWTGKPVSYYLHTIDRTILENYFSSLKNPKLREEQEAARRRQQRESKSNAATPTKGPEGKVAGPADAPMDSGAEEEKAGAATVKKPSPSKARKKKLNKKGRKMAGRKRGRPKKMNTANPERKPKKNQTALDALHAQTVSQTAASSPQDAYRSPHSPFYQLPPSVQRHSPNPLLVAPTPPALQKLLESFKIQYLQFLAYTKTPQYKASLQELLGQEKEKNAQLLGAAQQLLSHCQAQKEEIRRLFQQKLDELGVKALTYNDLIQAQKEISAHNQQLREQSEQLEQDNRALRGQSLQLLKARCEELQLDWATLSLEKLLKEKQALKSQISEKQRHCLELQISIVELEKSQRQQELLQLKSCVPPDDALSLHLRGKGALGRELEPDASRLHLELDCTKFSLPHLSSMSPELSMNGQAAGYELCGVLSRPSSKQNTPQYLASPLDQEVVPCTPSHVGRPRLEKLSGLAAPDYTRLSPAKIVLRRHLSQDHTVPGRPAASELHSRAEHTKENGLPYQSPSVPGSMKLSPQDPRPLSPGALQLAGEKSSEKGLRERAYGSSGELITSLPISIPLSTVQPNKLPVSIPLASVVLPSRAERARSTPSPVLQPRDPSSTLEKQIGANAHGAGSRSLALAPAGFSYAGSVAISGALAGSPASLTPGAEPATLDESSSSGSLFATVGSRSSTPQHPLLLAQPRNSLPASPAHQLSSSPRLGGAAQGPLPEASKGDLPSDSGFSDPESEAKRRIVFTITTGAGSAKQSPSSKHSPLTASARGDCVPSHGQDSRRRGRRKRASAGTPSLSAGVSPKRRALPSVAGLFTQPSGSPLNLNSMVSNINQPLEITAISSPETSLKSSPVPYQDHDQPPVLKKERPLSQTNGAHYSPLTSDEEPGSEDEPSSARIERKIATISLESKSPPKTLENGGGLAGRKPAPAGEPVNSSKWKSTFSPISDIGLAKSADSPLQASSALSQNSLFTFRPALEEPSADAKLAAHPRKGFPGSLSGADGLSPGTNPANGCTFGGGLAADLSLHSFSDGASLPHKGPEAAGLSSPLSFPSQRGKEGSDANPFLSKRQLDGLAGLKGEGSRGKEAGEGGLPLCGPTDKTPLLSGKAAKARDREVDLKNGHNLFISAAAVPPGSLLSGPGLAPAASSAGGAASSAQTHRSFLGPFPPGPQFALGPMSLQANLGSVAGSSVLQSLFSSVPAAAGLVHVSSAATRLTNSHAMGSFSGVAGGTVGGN
# Chain of Serine/threonine-protein kinase PAK 2 (Homo sapiens) (Q13177 whole entry): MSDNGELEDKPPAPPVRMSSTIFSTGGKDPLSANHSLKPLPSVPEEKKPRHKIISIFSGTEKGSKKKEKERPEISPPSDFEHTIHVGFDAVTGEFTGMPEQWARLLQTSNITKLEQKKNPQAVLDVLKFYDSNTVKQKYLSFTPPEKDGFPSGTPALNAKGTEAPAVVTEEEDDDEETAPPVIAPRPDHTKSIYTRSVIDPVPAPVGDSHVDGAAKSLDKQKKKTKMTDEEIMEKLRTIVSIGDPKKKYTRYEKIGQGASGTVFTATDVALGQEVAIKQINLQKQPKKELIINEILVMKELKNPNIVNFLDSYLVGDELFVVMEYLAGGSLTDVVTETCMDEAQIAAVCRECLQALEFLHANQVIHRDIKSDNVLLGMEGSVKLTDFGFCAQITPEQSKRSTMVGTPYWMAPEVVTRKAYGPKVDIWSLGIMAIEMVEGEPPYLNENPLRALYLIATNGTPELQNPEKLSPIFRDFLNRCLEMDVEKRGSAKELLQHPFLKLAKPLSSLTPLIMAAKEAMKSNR
# Chain of Sodium-dependent noradrenaline transporter (P23975 whole entry): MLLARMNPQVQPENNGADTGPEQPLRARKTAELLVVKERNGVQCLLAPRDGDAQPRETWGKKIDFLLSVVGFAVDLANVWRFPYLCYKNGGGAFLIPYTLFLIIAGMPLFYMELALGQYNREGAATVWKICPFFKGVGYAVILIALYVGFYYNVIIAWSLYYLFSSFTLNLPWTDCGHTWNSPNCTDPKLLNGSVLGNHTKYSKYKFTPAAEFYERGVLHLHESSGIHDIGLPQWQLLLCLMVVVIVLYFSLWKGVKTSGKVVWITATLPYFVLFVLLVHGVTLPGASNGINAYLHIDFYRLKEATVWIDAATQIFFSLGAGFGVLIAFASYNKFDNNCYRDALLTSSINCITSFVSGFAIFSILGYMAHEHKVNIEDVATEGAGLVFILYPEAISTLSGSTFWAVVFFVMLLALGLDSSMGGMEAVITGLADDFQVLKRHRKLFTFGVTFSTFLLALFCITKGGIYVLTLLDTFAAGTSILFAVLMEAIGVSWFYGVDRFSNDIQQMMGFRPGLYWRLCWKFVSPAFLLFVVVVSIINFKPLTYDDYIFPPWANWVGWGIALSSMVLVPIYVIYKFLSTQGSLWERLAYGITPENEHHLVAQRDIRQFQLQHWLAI
# Chain of Translocator protein (Homo sapiens) (P30536 whole entry): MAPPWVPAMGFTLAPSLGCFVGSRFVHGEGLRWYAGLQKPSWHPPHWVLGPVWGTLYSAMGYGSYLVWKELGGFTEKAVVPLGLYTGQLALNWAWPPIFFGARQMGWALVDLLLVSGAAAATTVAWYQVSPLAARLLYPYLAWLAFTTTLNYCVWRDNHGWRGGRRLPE
smiles,measurement,setting,value
CCCc1cc(C)[nH]c(=O)c1CNC(=O)c1cc(-c2ccc(N3CCN(C(C)C)CC3)nc2)cc2c1cnn2C(C)C,inhibition,[1],-8%
same,inhibition,[2],-6%
same,inhibition,[3],-4%
same,inhibition,[4],3%
same,inhibition,[5],-5%
same,inhibition,[6],-4%
same,inhibition,[7],4%
same,inhibition,[8],-10%
same,inhibition,[9],-9%
same,inhibition,[10],22%
same,inhibition,[11],10%
same,inhibition,[12],-4%
same,inhibition,[13],3%
same,inhibition,[14],14%
same,inhibition,Homo sapiens,-6%
same,inhibition,[15],21%
same,inhibition,[16],30%
same,inhibition,[17],19%
same,inhibition,[18],41%
same,inhibition,[19],10%
same,inhibition,[20],9%
same,inhibition,[21],31%
same,pIC50,[22],< 4.00
same,pIC50,[23],< 4.00
same,pIC50,[24],< 4.00
same,pIC50,[25],< 4.00
same,pIC50,[26],< 4.00
same,Activity,DB,Active
same,Activity,[27],Non-Toxic
same,pKi,[28],5.82
same,inhibition,[29],-6%

# From ChEMBL document CHEMBL5705896 (ACS Chem Biol, 2013)
